# Values of other authors, collected in patent US20090004049A1, “Method of irradiation using process of adding vitamin C” (priority 2007, published 2009).
# Tested on: patients with cancer
# Details: 10 g of vitamin C administered to patients with cancer
compound,measurement,value
O=C1O[C@H]([C@@H](O)CO)C(O)=C1O [vitamin C],increase of survival rate of patients compared with control,4 times
